The text below walks through data of ChEMBL document CHEMBL4825740, “Novel Histone Deacetylase Inhibitors for Treating HIV Infection” (ACS Med Chem Lett, 2021).

In test [1] the target is Histone deacetylase 1 (Homo sapiens, UniProt Q13547). As to the kind of experiment: Inhibition of human recombinant FLAG-tagged HDAC1 expressed in HEK293F cells incubated for 30 mins by Fluor De Lys assay. Format: cell-based.
Test [2] addresses Histone deacetylase 3 (Homo sapiens, UniProt O15379). As to the kind of experiment: Inhibition of human recombinant FLAG-tagged HDAC3 expressed in HEK293F cells incubated for 30 mins by Fluor De Lys assay. Format: cell-based.
The target of test [3] is Histone deacetylase 2 (Homo sapiens, UniProt Q92769). In words: Inhibition of human recombinant FLAG-tagged HDAC2 expressed in Sf9 cells incubated for 30 mins by Fluor De Lys assay.
Histone deacetylase 2, sequence (Q92769 whole entry): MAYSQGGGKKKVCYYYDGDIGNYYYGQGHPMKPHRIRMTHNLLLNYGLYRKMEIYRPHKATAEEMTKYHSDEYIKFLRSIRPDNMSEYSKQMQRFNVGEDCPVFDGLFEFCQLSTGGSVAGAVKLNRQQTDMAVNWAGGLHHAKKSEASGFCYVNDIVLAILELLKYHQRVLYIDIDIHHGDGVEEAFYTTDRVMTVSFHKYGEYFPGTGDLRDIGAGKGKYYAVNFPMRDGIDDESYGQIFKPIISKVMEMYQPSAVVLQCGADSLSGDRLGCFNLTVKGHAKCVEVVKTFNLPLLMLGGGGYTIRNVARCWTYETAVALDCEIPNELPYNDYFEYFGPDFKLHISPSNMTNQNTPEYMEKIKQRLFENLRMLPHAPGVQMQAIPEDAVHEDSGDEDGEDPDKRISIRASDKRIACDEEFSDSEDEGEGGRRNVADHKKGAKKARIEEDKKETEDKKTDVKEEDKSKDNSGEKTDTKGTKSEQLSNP

Histone deacetylase 1, sequence (Q13547 whole entry): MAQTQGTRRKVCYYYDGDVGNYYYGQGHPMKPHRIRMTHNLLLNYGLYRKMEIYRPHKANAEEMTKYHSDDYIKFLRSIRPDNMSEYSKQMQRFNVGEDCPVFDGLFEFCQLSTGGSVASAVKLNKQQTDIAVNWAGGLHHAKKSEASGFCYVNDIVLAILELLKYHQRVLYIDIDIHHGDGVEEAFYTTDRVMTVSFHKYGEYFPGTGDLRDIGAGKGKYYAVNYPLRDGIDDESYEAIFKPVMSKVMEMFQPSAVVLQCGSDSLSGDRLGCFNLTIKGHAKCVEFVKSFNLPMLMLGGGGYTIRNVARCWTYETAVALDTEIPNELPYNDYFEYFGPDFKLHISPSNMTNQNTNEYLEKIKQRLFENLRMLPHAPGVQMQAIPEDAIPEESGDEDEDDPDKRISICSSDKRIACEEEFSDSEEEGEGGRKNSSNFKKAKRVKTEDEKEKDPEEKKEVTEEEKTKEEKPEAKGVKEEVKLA
Histone deacetylase 3, sequence (O15379 whole entry): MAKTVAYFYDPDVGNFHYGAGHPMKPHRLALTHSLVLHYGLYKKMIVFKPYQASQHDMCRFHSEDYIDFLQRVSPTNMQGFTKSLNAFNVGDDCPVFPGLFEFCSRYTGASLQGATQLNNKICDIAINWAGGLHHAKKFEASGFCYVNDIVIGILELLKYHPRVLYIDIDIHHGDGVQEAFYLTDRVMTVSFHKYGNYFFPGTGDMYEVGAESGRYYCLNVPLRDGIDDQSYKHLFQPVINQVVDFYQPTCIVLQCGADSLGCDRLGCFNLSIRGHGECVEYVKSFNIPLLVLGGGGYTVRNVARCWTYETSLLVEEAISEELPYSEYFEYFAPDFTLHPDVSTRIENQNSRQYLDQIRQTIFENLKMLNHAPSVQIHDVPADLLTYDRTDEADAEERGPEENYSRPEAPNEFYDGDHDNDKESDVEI

The term IC50 denotes the concentration needed to halve the response being measured. Consider `CCC(=O)CCCCC[C@H](NC(=O)[C@H]1CC12CCN(CC)CC2)c1ncc(-c2cc3cccnc3cc2OC)o1`, for which the concentration for half-maximal inhibition (IC50) in test [1] and in test [2] was below 1.5 nM each time.

With `CCC(=O)CCCCC[C@H](NC(=O)[C@H]1CC12CCN(C)CC2)c1ncc(-c2cc3ccc(N4CCCC4)nc3cc2OC)[nH]1`, the IC50 came to 2 nM in test [3] and 0.32 nM in test [1].
